The subject of one test is Nqo1. As to the kind of experiment: Nqo1 transcript levels in RAW264.7 macrophage cells. It is filed as cell-based, mouse. The note with it: 10 μM Compound 1, IFN-γ. The method, then:
(§1) The RNeasy Mini Kit (Qiagen) was used to collect total RNA from cells, while for mouse tissue, TRIzol reagent (Invitrogen) was used. In each case, total RNAs (2 μg) were reverse-transcribed into cDNAs, which were used as templates for TaqMan gene expression assay (Applied Biosystems) and detected using the 7300 Real-Time PCR System (Applied Biosystems). Each qPCR sample was tested in triplicate as a 25 μL total reaction volume (12.5 μL of Taqman 2× universal master mix, 1.25 μL of a 20× TaqMan gene expression assay probe, 1 μL of the above cDNA, and 10.25 μL of RNase-free sterile water). The qPCR method was designed as following: 50° C. for 2 min, 95° C. for 10 min, and 40 cycles of 95° C. for 15 s and 60° C. for 1 min. Endogenous controls used included GAPDH for IMR-32 cells and β-actin to normalize for RAW264.7 cells and mouse tissues.
(§2) RAW264.7 cells were seeded in 6-well plates (8×10^5 cells/well) and incubated at 37° C. overnight.

Another test has as its system Cox2. As to the kind of experiment: Cox2 transcript levels in RAW264.7 macrophage cells. Format: cell-based, mouse. The note with it: 10 μM Compound 1, IFN-γ. The method, then:
as §1, §2

For test [1], the system named is neutrophil migration to cut site, Tg(mpx::GFP) zebrafish. Nature of the test: Zebrafish in vivo neutrophil migration assay. The note with it: relative to DMSO vehicle control. Details: species or system Danio rerio. As to the method: Tg(mpx::GFP)^ill4 transgenic zebrafish larvae (6 dpf) were pre-treated in duplicate with a solvent control ((DMSO, 1%, v/v) or serial dilutions of the compound or extract in 12-well plate format with five larvae per well containing 1 mL E2 medium containing 1 mM Tris pH 7.4. After 3 hours, larvae were anesthetised with Tricaine and tailfins were amputated using sharp blades to induce the migration of neutrophils. The larvae were then placed into fresh wells to be post-treated for an additional 3 hours. A fluorescence stereomicroscope was used to count the number of neutrophils that migrated to the site of injury. The assay was performed in triplicate to determine statistical significance.
For in vivo evaluation, a previously reported neutrophil migration assay in the model organism, Danio rerio, was used [Wang X, et al. (2014) Inhibitors of neutrophil recruitment identified using transgenic zebrafish to screen a natural product library. Dis Model Mech 7(1):163-169]. […] The fish were then quickly transferred into fresh media containing the treatments for an additional 3 h before the GFP-tagged neutrophils were counted under the fluorescent microscope. […]

A further test concerns the target T1, Keap1 (Cys-151) (Homo sapiens, UniProt Q14145).
T1 construct: expressed in transfected cells; host or cells: HEK293
As to the kind of experiment: Keap1 Cys-151 reactivity in co-transfected HEK293 cells. It is filed as cell-based. The note with it: for Keap1-associated Cul3 / Keap1-Cul3 interaction: Keap1-CBD and HA-Cul3. From the text:
The ARE-luciferase reporter construct (ARE-luc) contains the core sequence of human NQO1-ARE1. […] Mol. Cell. […] The Keap1-CBD plasmid carries the entire open reading frame (ORF) of human Keap1 fused to the chitin binding domain (CBD) of the Bacillus circulans chitinase A1 gene upstream of the Keap1 stop codon. Oligonucleotide-directed mutagenesis was used to generate the Keap1-C151S-CBD and Keap1-C288S-CBD plasmids. The HA-Cul3 plasmid was constructed by fusing an N-terminal hemagglutinin (HA) tag with a cDNA sequence coding for amino acids 1-380 of human Cul3 gene. The Gal4-Neh2 expression vector contains the codons for the first 97 amino acids (Neh2 domain) of human Nrf2 fused to the ORF of the Gal4 DNA-binding domain
The reactivity at the amino acid level of KEAP1 was then investigated. […] In order to evaluate specific cysteine residues which may be alkylated in the presence of cymopols, HEK293 cells were co-transfected with either a mock plasmid, a wild-type Keap1-CBD, or a Keap1-C151S-CBD and HA-Cul3 (to evaluate Cul3 binding inhibition upon cymopol addition), HA-Nrf2 (to evaluate Nrf2-Keap1 interactions), or Gal4-Neh2 and HA-Ub (to evaluate ubiquitination patterns of Nrf2).

For test [2], the system named is ARE-driven genes (GCLC, Gclm, TXNRD1, GSTA4, HMOX1). As to the kind of experiment: qPCR of ARE-driven genes in IMR-32 cells. Format: cell-based, human. The method, then: as §1
(In general: In qPCR the cycle at which signal appears reflects the starting amount.)

T1 sequence (Q14145 whole entry): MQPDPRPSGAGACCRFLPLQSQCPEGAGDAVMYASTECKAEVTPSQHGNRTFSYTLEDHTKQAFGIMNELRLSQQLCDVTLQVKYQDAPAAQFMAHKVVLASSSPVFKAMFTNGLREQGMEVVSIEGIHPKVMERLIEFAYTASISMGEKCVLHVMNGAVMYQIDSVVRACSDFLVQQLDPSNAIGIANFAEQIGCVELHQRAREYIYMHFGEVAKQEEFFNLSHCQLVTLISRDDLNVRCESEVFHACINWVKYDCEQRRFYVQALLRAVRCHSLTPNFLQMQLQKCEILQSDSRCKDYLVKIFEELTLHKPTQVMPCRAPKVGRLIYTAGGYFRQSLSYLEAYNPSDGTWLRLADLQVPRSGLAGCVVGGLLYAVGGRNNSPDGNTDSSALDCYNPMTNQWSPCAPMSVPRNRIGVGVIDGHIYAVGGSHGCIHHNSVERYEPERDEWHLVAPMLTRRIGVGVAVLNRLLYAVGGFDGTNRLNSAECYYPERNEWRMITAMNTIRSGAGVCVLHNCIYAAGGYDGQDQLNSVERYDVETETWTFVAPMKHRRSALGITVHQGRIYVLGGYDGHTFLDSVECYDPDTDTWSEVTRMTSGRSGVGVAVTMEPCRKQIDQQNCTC

For the molecule `CC(C)=CCC/C(C)=C/Cc1cc(O)c(Br)cc1O` [Compound 1, (E)-2-bromo-5-(3,7-dimethylocta-2,6-dien-1-yl)benzene-1,4-diol], the “increase of Nqo1 transcript levels” value in the test with Nqo1 was above 96%. Also, in the test on Cox2, the “reduction of Cox2 transcript levels” value turned out to be 90%. Further, the “number of neutrophils at the cut site” value in test [1] is listed as “decrease of neutrophils”. The “Keap1-associated Cul3 / Keap1-Cul3 interaction” value at Keap1 (Cys-151) is recorded as “increase binding of Keap1-Cul3 interaction”; at Keap1 (Cys-151) (listed as compound 1), “reduced”. In addition, on Keap1 (Cys-151) (Keap1-CBD and HA-Nrf2, dependent on Cys-151), the “dimerization of Keap1” value is “increase dimerization of Keap1”. Further, the Neh2 ubiquitination entry at Keap1 (Cys-151) (wild-type Keap1, Gal4-Neh2 and HA-Ub, preliminary data) is “less Neh2 ubiquitination”. For the same molecule, the “levels of Neh2” value at Keap1 (Cys-151) (wild-type Keap1, preliminary data) was “higher levels of Neh2”. Further, the “transcription of a series of ARE-driven genes” value in test [2] is given as “induce the transcription of a series of ARE-driven genes”.

The record behind these values is patent US20240226211A9, “SEAWEED EXTRACTS, ISOLATED COMPOUNDS, AND METHODS OF TREATMENT” (University of Florida Research Foundation, Incorporated, priority 2017, published 2024).
